Tested on: T1, erg-mediated K+ channel (Kerg, KV11)
T1 construct: gene Kcnh2; native channel in GH3 pituitary tumor cells
Assay: whole-cell patch clamp of native IK(erg) in GH3 cells
Type: cell-based

`CC1=CC(=O)c2cccc(O)c2C1=O` [isoPLB, 8-hydroxy-2-methylnaphthalene-1,4-dione] was tested, and the IC50 was 2400 nM.

From paper PMC9029050, “The Effectiveness of Isoplumbagin and Plumbagin in Regulating Amplitude, Gating Kinetics, and Voltage-Dependent Hysteresis of erg-mediated K^+ Currents” (Biomedicines, 2022)
